Like-named read-outs stand apart in the source and are kept apart here.
Key:
Alpha1a = Alpha1a (Homo sapiens, UniProt P35348); assay: cell-based
in vivo = settings: both, beagle, dog
in vitro [1] = settings: human
Beta2 = Beta2 (Homo sapiens, UniProt P07550); assay: cell-based
in vitro [2] = assay: in vitro
in vitro [3] = settings: human; remark: listed apart in the source
TNIK = TNIK (Homo sapiens, UniProt Q9UKE5); assay: biochemical
M1 = M1 (Homo sapiens, UniProt P11229); assay: cell-based
DYRK3 = DYRK3 (Homo sapiens, UniProt O43781); assay: biochemical
[4] = tested on: Influenza virus A/WSN/33 (H1N1); assay: microbe, parasite or virus in culture; type: cell-based; settings: MDCK, read-out: EC50 (mean ± SD)
CAMK2 alpha = CAMK2 alpha (Homo sapiens, UniProt Q9UQM7); assay: biochemical
HBV = assay: microbe, parasite or virus in culture; type: cell-based; settings: Hepatitis B virus, HepG2.2.15, read-out: EC50 for Virus
CHK1 = CHK1 (Homo sapiens, UniProt O14757); assay: biochemical
[5] = target: influenza virus polymerase (PB1, PB2, NP, PA from A/California/04/2009 (H1N1) pdm09) (Influenza A virus, UniProt C3W5R8+C3W5R9); type: cell-based
Alpha2a = Alpha2a (Homo sapiens, UniProt P08913); assay: cell-based
CB1 [6] = target: T1, CB1 (Homo sapiens, UniProt P21554); assay: cell-based
CCKa = target: T2, CCKa (Homo sapiens, UniProt P32238); assay: cell-based
T2 sequence (P32238 1-428): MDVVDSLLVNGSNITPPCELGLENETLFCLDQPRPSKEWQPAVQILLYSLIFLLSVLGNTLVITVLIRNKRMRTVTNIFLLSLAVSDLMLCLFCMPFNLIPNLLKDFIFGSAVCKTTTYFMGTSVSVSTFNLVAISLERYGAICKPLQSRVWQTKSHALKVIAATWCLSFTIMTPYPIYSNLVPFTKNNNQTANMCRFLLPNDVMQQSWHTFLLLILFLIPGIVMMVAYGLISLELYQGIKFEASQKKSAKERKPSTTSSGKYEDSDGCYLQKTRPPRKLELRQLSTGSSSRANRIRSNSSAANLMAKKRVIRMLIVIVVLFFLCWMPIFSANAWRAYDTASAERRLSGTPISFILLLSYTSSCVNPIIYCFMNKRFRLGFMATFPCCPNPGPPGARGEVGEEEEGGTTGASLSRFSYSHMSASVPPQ

HPIV-3 C243 = assay: microbe, parasite or virus in culture; type: cell-based, human parainfluenza virus type 3; settings: Human respirovirus 3, LLC-MK2, read-out: EC50 for Virus
hERG potassium channel = hERG potassium channel (Homo sapiens, UniProt Q12809); assay: cell-based
op-delta = op-delta (Homo sapiens, UniProt P41143); assay: cell-based
op-kappa = op-kappa (Homo sapiens, UniProt P41145); assay: cell-based
Eta = Eta (Homo sapiens, UniProt P25101); assay: cell-based
EPHA2 = EPHA2 (Homo sapiens, UniProt P29317); assay: biochemical
ABL1 = ABL1 (Homo sapiens, UniProt P00519); assay: biochemical
CB1 [7] = target: T1, CB1; assay: cell-based; remark: listed apart in the source
PKA = PKA (Homo sapiens, UniProt P17612); assay: biochemical
GSK3 beta = GSK3 beta (Homo sapiens, UniProt P49841); assay: biochemical
M2 = M2 (Homo sapiens, UniProt P08172); assay: cell-based
MAP4K4 = MAP4K4 (Homo sapiens, UniProt O95819); assay: biochemical
[8] = tested on: H1N1 and H3N2 influenza A virus strains; assay: in vitro; settings: dog
[9] = tested on: Influenza virus A/California/2/2014 (H3N2); assay: microbe, parasite or virus in culture; type: cell-based; settings: H3N2, MDCK, read-out: EC50 (mean ± SD)
D1 = D1 (Homo sapiens, UniProt P21728); assay: cell-based
[10] = 10,000 nM, read-out: Inhibition at Maximum Concentration (%)

T1 sequence (P21554 whole entry): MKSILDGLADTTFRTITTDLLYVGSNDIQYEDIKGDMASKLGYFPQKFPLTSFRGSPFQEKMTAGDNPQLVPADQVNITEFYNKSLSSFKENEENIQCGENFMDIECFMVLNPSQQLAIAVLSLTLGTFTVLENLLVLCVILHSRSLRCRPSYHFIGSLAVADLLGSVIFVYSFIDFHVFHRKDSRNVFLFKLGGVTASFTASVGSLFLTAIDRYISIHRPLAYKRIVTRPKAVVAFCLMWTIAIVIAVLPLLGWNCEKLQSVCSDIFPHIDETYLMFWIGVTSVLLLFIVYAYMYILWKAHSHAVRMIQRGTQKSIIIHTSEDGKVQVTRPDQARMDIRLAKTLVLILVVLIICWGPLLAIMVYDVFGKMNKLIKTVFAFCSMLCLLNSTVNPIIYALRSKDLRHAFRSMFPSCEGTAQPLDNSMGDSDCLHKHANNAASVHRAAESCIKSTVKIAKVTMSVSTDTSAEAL
Chain of op-delta (P41143 whole entry): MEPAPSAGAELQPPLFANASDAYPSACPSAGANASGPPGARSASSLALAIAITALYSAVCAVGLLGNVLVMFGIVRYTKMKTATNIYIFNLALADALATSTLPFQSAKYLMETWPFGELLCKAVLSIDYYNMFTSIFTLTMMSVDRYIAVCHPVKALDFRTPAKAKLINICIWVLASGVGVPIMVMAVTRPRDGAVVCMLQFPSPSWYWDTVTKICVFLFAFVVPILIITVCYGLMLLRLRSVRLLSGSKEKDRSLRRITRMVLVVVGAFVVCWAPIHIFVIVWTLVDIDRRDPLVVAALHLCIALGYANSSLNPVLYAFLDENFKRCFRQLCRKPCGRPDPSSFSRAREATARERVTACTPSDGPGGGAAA
Chain of op-kappa (P41145 whole entry): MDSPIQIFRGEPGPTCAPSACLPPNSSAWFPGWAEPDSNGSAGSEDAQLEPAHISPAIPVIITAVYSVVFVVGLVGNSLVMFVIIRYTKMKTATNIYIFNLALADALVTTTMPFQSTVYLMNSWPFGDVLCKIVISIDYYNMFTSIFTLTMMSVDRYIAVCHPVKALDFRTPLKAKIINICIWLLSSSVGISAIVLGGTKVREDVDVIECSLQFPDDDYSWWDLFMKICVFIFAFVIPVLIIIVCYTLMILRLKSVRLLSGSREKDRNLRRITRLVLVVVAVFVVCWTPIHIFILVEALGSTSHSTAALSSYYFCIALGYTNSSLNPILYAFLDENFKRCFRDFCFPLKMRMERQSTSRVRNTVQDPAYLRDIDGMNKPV
Chain of D1 (P21728 whole entry): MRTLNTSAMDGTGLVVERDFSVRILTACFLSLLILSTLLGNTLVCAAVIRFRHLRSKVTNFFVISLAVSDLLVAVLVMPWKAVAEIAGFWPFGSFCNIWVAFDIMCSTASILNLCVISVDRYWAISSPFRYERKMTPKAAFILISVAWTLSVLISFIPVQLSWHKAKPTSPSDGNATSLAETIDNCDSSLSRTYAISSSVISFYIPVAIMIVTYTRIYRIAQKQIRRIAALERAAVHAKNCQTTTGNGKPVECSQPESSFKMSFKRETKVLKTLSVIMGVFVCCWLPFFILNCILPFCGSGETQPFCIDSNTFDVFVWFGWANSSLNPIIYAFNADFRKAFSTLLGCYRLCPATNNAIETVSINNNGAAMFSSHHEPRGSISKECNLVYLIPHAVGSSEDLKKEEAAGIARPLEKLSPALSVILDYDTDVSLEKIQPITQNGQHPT
Chain of M1 (P11229 whole entry): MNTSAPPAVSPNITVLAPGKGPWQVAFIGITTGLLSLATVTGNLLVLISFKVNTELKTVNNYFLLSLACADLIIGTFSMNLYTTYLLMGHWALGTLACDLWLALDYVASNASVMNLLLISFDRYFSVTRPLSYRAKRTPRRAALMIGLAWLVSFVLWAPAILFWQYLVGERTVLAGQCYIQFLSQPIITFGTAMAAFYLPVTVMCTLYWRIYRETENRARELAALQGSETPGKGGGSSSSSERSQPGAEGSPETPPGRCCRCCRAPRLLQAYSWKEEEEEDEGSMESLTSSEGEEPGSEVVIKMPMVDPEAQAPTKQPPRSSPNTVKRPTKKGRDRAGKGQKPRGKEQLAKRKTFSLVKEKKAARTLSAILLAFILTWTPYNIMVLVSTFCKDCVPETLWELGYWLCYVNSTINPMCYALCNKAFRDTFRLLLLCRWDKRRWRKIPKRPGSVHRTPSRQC
Chain of M2 (P08172 whole entry): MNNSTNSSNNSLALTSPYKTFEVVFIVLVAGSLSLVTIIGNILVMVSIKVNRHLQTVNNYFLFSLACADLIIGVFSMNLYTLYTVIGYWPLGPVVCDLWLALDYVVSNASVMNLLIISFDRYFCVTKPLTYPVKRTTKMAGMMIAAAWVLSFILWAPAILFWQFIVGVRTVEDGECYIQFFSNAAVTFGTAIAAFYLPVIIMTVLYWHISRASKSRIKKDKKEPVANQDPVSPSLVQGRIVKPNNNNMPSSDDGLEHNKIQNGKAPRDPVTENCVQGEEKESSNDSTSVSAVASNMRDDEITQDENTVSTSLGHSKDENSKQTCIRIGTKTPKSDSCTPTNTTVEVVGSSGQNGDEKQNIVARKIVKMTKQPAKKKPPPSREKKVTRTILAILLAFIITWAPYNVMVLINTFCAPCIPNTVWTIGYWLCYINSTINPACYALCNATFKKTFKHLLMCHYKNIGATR
Chain of Eta (P25101 21-427): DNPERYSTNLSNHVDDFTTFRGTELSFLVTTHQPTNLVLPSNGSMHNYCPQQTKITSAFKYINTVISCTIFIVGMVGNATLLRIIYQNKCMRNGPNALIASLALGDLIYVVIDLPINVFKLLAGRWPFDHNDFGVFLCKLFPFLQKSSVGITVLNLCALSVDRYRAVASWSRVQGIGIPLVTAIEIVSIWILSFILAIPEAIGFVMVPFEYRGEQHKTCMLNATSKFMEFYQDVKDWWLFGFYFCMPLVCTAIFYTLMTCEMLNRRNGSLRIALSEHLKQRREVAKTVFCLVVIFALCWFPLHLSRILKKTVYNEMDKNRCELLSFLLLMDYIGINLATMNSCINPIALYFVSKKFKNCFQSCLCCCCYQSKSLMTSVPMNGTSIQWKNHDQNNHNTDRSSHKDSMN
Chain of Alpha1a (P35348 whole entry): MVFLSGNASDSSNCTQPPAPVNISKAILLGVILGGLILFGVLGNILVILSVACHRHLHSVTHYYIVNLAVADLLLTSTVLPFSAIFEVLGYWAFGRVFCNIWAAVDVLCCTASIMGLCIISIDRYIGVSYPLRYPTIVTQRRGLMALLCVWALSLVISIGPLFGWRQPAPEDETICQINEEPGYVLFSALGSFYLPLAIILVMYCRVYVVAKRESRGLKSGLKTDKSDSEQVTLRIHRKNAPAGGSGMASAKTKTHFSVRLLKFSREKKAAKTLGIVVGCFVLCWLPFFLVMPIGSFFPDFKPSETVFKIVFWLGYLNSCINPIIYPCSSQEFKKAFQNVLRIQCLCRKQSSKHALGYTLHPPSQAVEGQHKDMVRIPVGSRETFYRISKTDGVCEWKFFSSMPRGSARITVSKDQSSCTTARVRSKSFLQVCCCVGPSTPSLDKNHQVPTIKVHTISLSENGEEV
Chain of Alpha2a (P08913 whole entry): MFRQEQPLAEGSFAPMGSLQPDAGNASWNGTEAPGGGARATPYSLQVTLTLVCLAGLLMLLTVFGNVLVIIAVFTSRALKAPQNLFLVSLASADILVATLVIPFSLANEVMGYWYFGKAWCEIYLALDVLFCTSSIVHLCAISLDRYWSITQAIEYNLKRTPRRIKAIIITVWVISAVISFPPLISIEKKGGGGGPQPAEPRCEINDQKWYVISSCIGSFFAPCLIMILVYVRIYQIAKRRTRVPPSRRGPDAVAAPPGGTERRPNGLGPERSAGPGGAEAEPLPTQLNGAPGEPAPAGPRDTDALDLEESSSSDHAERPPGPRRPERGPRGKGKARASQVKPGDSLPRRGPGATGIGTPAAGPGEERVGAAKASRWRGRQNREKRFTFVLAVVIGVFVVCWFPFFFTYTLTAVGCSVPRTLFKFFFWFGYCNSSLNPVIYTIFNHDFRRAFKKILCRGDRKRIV
Chain of Beta2 (P07550 whole entry): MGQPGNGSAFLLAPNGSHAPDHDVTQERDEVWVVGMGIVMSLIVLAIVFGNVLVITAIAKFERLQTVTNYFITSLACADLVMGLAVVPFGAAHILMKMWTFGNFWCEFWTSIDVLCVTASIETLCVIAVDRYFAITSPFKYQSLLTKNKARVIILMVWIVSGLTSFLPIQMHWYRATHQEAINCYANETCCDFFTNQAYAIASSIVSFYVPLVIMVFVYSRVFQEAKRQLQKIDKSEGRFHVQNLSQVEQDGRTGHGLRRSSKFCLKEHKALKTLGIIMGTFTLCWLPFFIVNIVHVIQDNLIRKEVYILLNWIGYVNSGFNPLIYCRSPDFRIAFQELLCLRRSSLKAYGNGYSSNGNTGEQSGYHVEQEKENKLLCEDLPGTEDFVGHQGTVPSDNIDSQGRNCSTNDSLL
Chain of GSK3 beta (P49841 whole entry): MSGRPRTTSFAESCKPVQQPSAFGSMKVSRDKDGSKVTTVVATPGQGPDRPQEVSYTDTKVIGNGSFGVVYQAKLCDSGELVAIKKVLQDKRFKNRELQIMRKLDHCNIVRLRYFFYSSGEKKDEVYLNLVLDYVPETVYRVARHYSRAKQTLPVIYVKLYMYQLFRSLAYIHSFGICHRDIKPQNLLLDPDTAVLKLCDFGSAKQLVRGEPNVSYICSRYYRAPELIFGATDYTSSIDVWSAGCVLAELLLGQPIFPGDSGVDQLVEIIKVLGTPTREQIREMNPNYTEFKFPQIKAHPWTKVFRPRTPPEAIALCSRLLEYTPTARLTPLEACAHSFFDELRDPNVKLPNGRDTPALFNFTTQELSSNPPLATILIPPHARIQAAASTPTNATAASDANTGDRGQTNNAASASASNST

## O=C(O)[C@H]1C2CCC(CC2)[C@@H]1Nc1nc(-c2n[nH]c3ncc(F)cc23)nc(C2CC2)c1F [ZSP1273]
Alpha1a
  IC50: > 10 µM
Alpha1a; [10]
  inhibition at 10 µM: -56.5%
In vivo; iv, 1 mg/kg
  AUC(0-t): 791 ± 329 ng·h/mL
  Vd: 0.47 ± 0.0848 L/kg
  clearance: 25.8 ± 7.6 mL/min/kg
  half-life: 27.4 ± 10.1 min
In vivo; po, 1 mg/kg
  AUC(0-t): 211 ± 62.4 ng·h/mL
  Cmax: 292 ± 78.2 ng/mL
  Tmax: 27.5 ± 6.12 min
  bioavailability: 26.7%
In vivo; po, 5 mg/kg
  AUC(0-t): 1210 ± 641 ng·h/mL
  Cmax: 1450 ± 800 ng/mL
  Tmax: 32.5 ± 14.8 min
In vivo; po, 15 mg/kg
  AUC(0-t): 5030 ± 1960 ng·h/mL
  Cmax: 5800 ± 2150 ng/mL
  Tmax: 27.5 ± 17.5 min
In vitro [1]
  CC50: > 10 µM
Beta2
  EC50: > 12 µM
Beta2; 12,000 nM
  Activity at Maximum Concentration (%): 1.43%
In vitro [2]
  CC50: > 10 µM
In vitro [3]
  CC50: > 10 µM
TNIK
  IC50: > 10 µM
M1
  EC50: > 12 µM
M1; 12,000 nM
  Activity at Maximum Concentration (%): −3.22%
DYRK3
  IC50: > 10 µM
[4]
  EC50: 0.063 ± 0.028 nM
CAMK2 alpha
  IC50: > 10 µM
HBV
  EC50: > 10 µM
CHK1
  IC50: > 10 µM
[5]; read-out: IC50, Mean ± SEM
  IC50: 0.000562 ± 0.000116 µM
[5]; read-out: IC50, experiment 1
  IC50: 0.000533 µM
[5]; read-out: IC50, experiment 2
  IC50: 0.000464 µM
[5]; read-out: IC50, experiment 3
  IC50: 0.00069 µM
Alpha2a
  EC50: > 12 µM
Alpha2a; 12,000 nM
  Activity at Maximum Concentration (%): −2.1%
CB1 [6]
  IC50: > 10 µM
CB1 [6]; [10]
  inhibition at 10 µM: -77.2%
CCKa
  EC50: > 12 µM
CCKa; 12,000 nM
  Activity at Maximum Concentration (%): −4.4%
HPIV-3 C243
  EC50: > 10 µM
hERG potassium channel
  IC50: > 40 µM
op-delta
  IC50: > 10 µM
op-delta; [10]
  inhibition at 10 µM: 7.37%
op-kappa
  IC50: > 10 µM
op-kappa; [10]
  inhibition at 10 µM: -27.8%
Eta
  EC50: > 12 µM
Eta; 12,000 nM
  Activity at Maximum Concentration (%): −1.16%
EPHA2
  IC50: > 10 µM
ABL1
  IC50: > 10 µM
CB1 [7]
  EC50: > 12 µM
CB1 [7]; 12,000 nM
  Activity at Maximum Concentration (%): −12.1%
PKA
  IC50: > 10 µM
GSK3 beta
  IC50: > 10 µM
M2
  IC50: > 10 µM
M2; [10]
  inhibition at 10 µM: -55.7%
MAP4K4
  IC50: > 10 µM
[8]
  selectivity ratio: > 25000
[9]
  EC50: 0.01 ± 0.0002 nM
D1
  EC50: > 12 µM
D1; 12,000 nM
  Activity at Maximum Concentration (%): −2.15%

Reference: paper PMC10056986 (Pharmaceuticals, 2023)
